Measured values reported in ChEMBL document CHEMBL2311510, “A new single-photon emission computed tomography (SPECT) imaging agent for serotonin transporters: [(125)I]Flip-IDAM, (2-((2-((dimethylamino)methyl)-4-iodophenyl)thio)phenyl)methanol” (Bioorg Med Chem Lett, 2013).

Tests used:
[1] = test system: Blood; assay: Biodistribution in Sprague-Dawley rat blood assessed as compound level per organ at 11 uCi, iv measured 60 mins post compound dose; type: ADME, organism-based; details: in vivo, 1 h
[2] = test system: Nucleic Acid; assay: Ratio of drug level in hippocampus to cerebellum in Sprague-Dawley rat at 11 uCi, iv measured 30 mins post compound dose; type: ADME, organism-based; details: in vivo, 0.5 h
[3] = test system: Kidney; assay: Biodistribution in Sprague-Dawley rat kidney at 11 uCi, iv measured 30 mins post compound dose; type: ADME, organism-based; details: in vivo, 0.5 h
[4] = test system: Heart; assay: Biodistribution in Sprague-Dawley rat heart at 11 uCi, iv measured 30 mins post compound dose; type: ADME, organism-based; details: in vivo, 0.5 h
[5] = test system: Blood; assay: Biodistribution in Sprague-Dawley rat blood at 11 uCi, iv measured 60 mins post compound dose; type: ADME, organism-based; details: in vivo, 1 h
[6] = test system: Brain; assay: Biodistribution in Sprague-Dawley rat brain assessed as compound level per organ at 11 uCi, iv measured 2 mins post compound dose; type: ADME, organism-based; details: in vivo
[7] = test system: Nucleic Acid; assay: Ratio of drug level in hypothalamus to cerebellum in Sprague-Dawley rat at 11 uCi, iv measured 60 mins post compound dose; type: ADME, organism-based; details: in vivo, 1 h
[8] = test system: Blood; assay: Biodistribution in Sprague-Dawley rat blood at 11 uCi, iv measured 120 mins post compound dose; type: ADME, organism-based; details: in vivo, 2 h
[9] = test system: Liver; assay: Biodistribution in Sprague-Dawley rat liver at 11 uCi, iv measured 30 mins post compound dose; type: ADME, organism-based; details: in vivo, 0.5 h
[10] = test system: Spleen; assay: Biodistribution in Sprague-Dawley rat spleen assessed as compound level per organ at 11 uCi, iv measured 120 mins post compound dose; type: ADME, organism-based; details: in vivo, 2 h
[11] = test system: Zone of skin; assay: Biodistribution in Sprague-Dawley rat skin at 11 uCi, iv measured 120 mins post compound dose; type: ADME, organism-based; details: in vivo, 2 h
[12] = test system: Cerebellum; assay: Biodistribution in Sprague-Dawley rat cerebellum at 11 uCi, iv measured 60 mins post compound dose; type: ADME, organism-based; details: in vivo, 1 h
[13] = test system: Bone; assay: Biodistribution in Sprague-Dawley rat bone at 11 uCi, iv measured 120 mins post compound dose; type: ADME, organism-based, Bone element; details: in vivo, 2 h
[14] = test system: Liver; assay: Biodistribution in Sprague-Dawley rat liver at 11 uCi, iv measured 60 mins post compound dose; type: ADME, organism-based; details: in vivo, 1 h
[15] = test system: Nucleic Acid; assay: Ratio of drug level in hippocampus to cerebellum in Sprague-Dawley rat at 11 uCi, iv measured 2 mins post compound dose; type: ADME, organism-based; details: in vivo
[16] = test system: Blood; assay: Biodistribution in Sprague-Dawley rat blood at 11 uCi, iv measured 2 mins post compound dose; type: ADME, organism-based; details: in vivo
[17] = test system: Lung; assay: Biodistribution in Sprague-Dawley rat lung at 11 uCi, iv measured 30 mins post compound dose; type: ADME, organism-based; details: in vivo, 0.5 h
[18] = test system: Zone of skin; assay: Biodistribution in Sprague-Dawley rat skin assessed as compound level per organ at 11 uCi, iv measured 2 mins post compound dose; type: ADME, organism-based; details: in vivo
[19] = test system: Zone of skin; assay: Biodistribution in Sprague-Dawley rat skin at 11 uCi, iv measured 30 mins post compound dose; type: ADME, organism-based; details: in vivo, 0.5 h
[20] = test system: Pancreas; assay: Biodistribution in Sprague-Dawley rat pancreas assessed as compound level per organ at 11 uCi, iv measured 120 mins post compound dose; type: ADME, organism-based; details: in vivo, 2 h
[21] = test system: Liver; assay: Biodistribution in Sprague-Dawley rat liver at 11 uCi, iv measured 120 mins post compound dose; type: ADME, organism-based; details: in vivo, 2 h
[22] = test system: Brain; assay: Biodistribution in Sprague-Dawley rat brain at 11 uCi, iv measured 2 mins post compound dose; type: ADME, organism-based; details: in vivo
[23] = test system: Cortex; assay: Biodistribution in Sprague-Dawley rat cortex at 11 uCi, iv measured 2 mins post compound dose; type: ADME, organism-based; details: in vivo
[24] = test system: Liver; assay: Biodistribution in Sprague-Dawley rat liver assessed as compound level per organ at 11 uCi, iv measured 60 mins post compound dose; type: ADME, organism-based; details: in vivo, 1 h
[25] = test system: Nucleic Acid; assay: Ratio of drug level in striatum to cerebellum in Sprague-Dawley rat at 11 uCi, iv measured 60 mins post compound dose; type: ADME, organism-based; details: in vivo, 1 h
[26] = test system: Kidney; assay: Biodistribution in Sprague-Dawley rat kidney assessed as compound level per organ at 11 uCi, iv measured 30 mins post compound dose; type: ADME, organism-based; details: in vivo, 0.5 h
[27] = test system: Lung; assay: Biodistribution in Sprague-Dawley rat lung at 11 uCi, iv measured 2 mins post compound dose; type: ADME, organism-based; details: in vivo
[28] = test system: Brain; assay: Biodistribution in Sprague-Dawley rat rest of brain at 11 uCi, iv measured 120 mins post compound dose; type: ADME, organism-based; details: in vivo, 2 h
[29] = test system: Lung; assay: Biodistribution in Sprague-Dawley rat lung assessed as compound level per organ at 11 uCi, iv measured 60 mins post compound dose; type: ADME, organism-based; details: in vivo, 1 h
[30] = test system: Blood; assay: Biodistribution in Sprague-Dawley rat blood assessed as compound level per organ at 11 uCi, iv measured 120 mins post compound dose; type: ADME, organism-based; details: in vivo, 2 h
[31] = test system: Striatum; assay: Biodistribution in Sprague-Dawley rat striatum at 11 uCi, iv measured 60 mins post compound dose; type: ADME, organism-based; details: in vivo, 1 h
[32] = test system: Heart; assay: Biodistribution in Sprague-Dawley rat heart assessed as compound level per organ at 11 uCi, iv measured 60 mins post compound dose; type: ADME, organism-based; details: in vivo, 1 h
[33] = test system: Spleen; assay: Biodistribution in Sprague-Dawley rat spleen assessed as compound level per organ at 11 uCi, iv measured 2 mins post compound dose; type: ADME, organism-based; details: in vivo
[34] = test system: Hypothalamus; assay: Biodistribution in Sprague-Dawley rat hypothalamus at 11 uCi, iv measured 60 mins post compound dose; type: ADME, organism-based; details: in vivo, 1 h
[35] = test system: Muscle tissue; assay: Biodistribution in Sprague-Dawley rat muscle assessed as compound level per organ at 11 uCi, iv measured 30 mins post compound dose; type: ADME, organism-based; details: in vivo, 0.5 h
[36] = test system: Liver; assay: Biodistribution in Sprague-Dawley rat liver assessed as compound level per organ at 11 uCi, iv measured 30 mins post compound dose; type: ADME, organism-based; details: in vivo, 0.5 h
[37] = test system: Kidney; assay: Biodistribution in Sprague-Dawley rat kidney at 11 uCi, iv measured 2 mins post compound dose; type: ADME, organism-based; details: in vivo
[38] = test system: Nucleic Acid; assay: Ratio of drug level in striatum to cerebellum in Sprague-Dawley rat at 11 uCi, iv measured 2 mins post compound dose; type: ADME, organism-based; details: in vivo
[39] = test system: Hypothalamus; assay: Biodistribution in Sprague-Dawley rat hypothalamus at 11 uCi, iv measured 2 mins post compound dose; type: ADME, organism-based; details: in vivo
[40] = test system: Pancreas; assay: Biodistribution in Sprague-Dawley rat pancreas at 11 uCi, iv measured 2 mins post compound dose; type: ADME, organism-based; details: in vivo
[41] = test system: Liver; assay: Biodistribution in Sprague-Dawley rat liver assessed as compound level per organ at 11 uCi, iv measured 120 mins post compound dose; type: ADME, organism-based; details: in vivo, 2 h
[42] = test system: Heart; assay: Biodistribution in Sprague-Dawley rat heart at 11 uCi, iv measured 120 mins post compound dose; type: ADME, organism-based; details: in vivo, 2 h
[43] = test system: Pancreas; assay: Biodistribution in Sprague-Dawley rat pancreas at 11 uCi, iv measured 120 mins post compound dose; type: ADME, organism-based; details: in vivo, 2 h
[44] = test system: Spleen; assay: Biodistribution in Sprague-Dawley rat spleen assessed as compound level per organ at 11 uCi, iv measured 60 mins post compound dose; type: ADME, organism-based; details: in vivo, 1 h
[45] = test system: Muscle tissue; assay: Biodistribution in Sprague-Dawley rat muscle at 11 uCi, iv measured 120 mins post compound dose; type: ADME, organism-based; details: in vivo, 2 h
[46] = test system: Bone; assay: Biodistribution in Sprague-Dawley rat bone at 11 uCi, iv measured 60 mins post compound dose; type: ADME, organism-based, Bone element; details: in vivo, 1 h
[47] = test system: Zone of skin; assay: Biodistribution in Sprague-Dawley rat skin at 11 uCi, iv measured 2 mins post compound dose; type: ADME, organism-based; details: in vivo
[48] = test system: Nucleic Acid; assay: Ratio of drug level in rest of brain region to cerebellum in Sprague-Dawley rat at 11 uCi, iv measured 60 mins post compound dose; type: ADME, organism-based; details: in vivo, 1 h
[49] = test system: Nucleic Acid; assay: Ratio of drug level in striatum to cerebellum in Sprague-Dawley rat at 11 uCi, iv measured 120 mins post compound dose; type: ADME, organism-based; details: in vivo, 2 h
[50] = test system: Nucleic Acid; assay: Ratio of drug level in cortex to cerebellum in Sprague-Dawley rat at 11 uCi, iv measured 2 mins post compound dose; type: ADME, organism-based; details: in vivo
[51] = test system: Hypothalamus; assay: Biodistribution in Sprague-Dawley rat hypothalamus at 11 uCi, iv measured 30 mins post compound dose; type: ADME, organism-based; details: in vivo, 0.5 h
[52] = test system: Muscle tissue; assay: Biodistribution in Sprague-Dawley rat muscle at 11 uCi, iv measured 30 mins post compound dose; type: ADME, organism-based; details: in vivo, 0.5 h

Drug uptake [1]: 3.26 %ID
Ratio [2]: 2.67
Drug uptake [3]: 1.45 % ID/g
Drug uptake [4]: 0.38 % ID/g
Drug uptake [5]: 0.22 % ID/g
Drug uptake [6]: 2.52 %ID
Ratio [7]: 2.77
Drug uptake [8]: 0.19 % ID/g
Drug uptake [9]: 1.28 % ID/g
Drug uptake [10]: 0.07 %ID
Drug uptake [11]: 0.13 % ID/g
Drug uptake [12]: 0.12 % ID/g
Drug uptake [13]: 0.16 % ID/g
Drug uptake [14]: 0.48 % ID/g
Ratio [15]: 0.85
Drug uptake [16]: 0.44 % ID/g
Drug uptake [17]: 0.77 % ID/g
Drug uptake [18]: 8.86 %ID
Drug uptake [19]: 0.31 % ID/g
Drug uptake [20]: 0.06 %ID
Drug uptake [21]: 0.41 % ID/g
Drug uptake [22]: 1.21 % ID/g
Drug uptake [23]: 1.39 % ID/g
Drug uptake [24]: 3.8 %ID
Ratio [25]: 2.12
Drug uptake [26]: 2.66 %ID
Drug uptake [27]: 3.23 % ID/g
Drug uptake [28]: 0.06 % ID/g
Drug uptake [29]: 0.73 %ID
Drug uptake [30]: 2.71 %ID
Drug uptake [31]: 0.25 % ID/g
Drug uptake [32]: 0.15 %ID
Drug uptake [33]: 1.04 %ID
Drug uptake [34]: 0.32 % ID/g
Drug uptake [35]: 17.1 %ID
Drug uptake [36]: 9.09 %ID
Drug uptake [37]: 2.6 % ID/g
Ratio [38]: 0.84
Drug uptake [39]: 1.54 % ID/g
Drug uptake [40]: 1.52 % ID/g
Drug uptake [41]: 2.69 %ID
Drug uptake [42]: 0.14 % ID/g
Drug uptake [43]: 0.16 % ID/g
Drug uptake [44]: 0.14 %ID
Drug uptake [45]: 0.06 % ID/g
Drug uptake [46]: 0.23 % ID/g
Drug uptake [47]: 0.28 % ID/g
Ratio [48]: 1.1
Ratio [49]: 1.89
Ratio [50]: 0.92
Drug uptake [51]: 1 % ID/g
Drug uptake [52]: 0.21 % ID/g
Structure (SMILES): CN(C)Cc1cc([125I])ccc1Sc1ccccc1CO
